Results reported in patent US20100249055A1, “CLOFARABINE PHOSPHOLIPID DERIVATIVES” (HEIDELBERG PHARMA AG, priority 2007, published 2010).

Experiments:
[1] = tested on: human cervix carcinoma xenograft KB-3-1; assay: Antitumor activity in human cervix carcinoma xenograft model (KB-3-1) in vivo; parameters: species or system nude mice; settings: for Tumor inhibition / Tumor weight: day 30; for Tumor weight: median
Description: Tumor bearing mice were randomized on day 8 after KB-3-1 tumor cell inoculation and were distributed to treatment groups of n=7 animals per group. Treatment was started on day 8. The animals were treated orally once daily for 5 consecutive days with 1 or 6. Dosages included 50 and 25% of the Maximum Tolerable Doses (MTD's). Control animals received the vehicle (water). On day 30, the primary tumors were explanted and the tumor weights were determined.

[2] = Oral bioavailability and pharmacokinetics in mice (plasma, mass spectroscopy); settings: for Bioavailability F (AUC(0-inf.)): 30 mg/kg po vs iv; for AUC(0-inf.) (calc.) / AUC(0-t) (obs.) / Cmax (obs.) / Tmax (obs.) / Vd / t½α / t½β: WFI
Description: Mice received 30 mg/kg of 1 or 6 intravenously or orally. For each time point blood of 3 mice has been collected, plasma prepared and the concentration of 1 or 6 has been determined by mass spectroscopy. […] Bioavailability and the area under the curve (Auc(0-t) [μg h/L]=AUC) have been determined.

[3] = 25% MTD, 100 mg/kg/day orally once daily for 5 days
[4] = 50% MTD, 200 mg/kg/day orally once daily for 5 days
[5] = 25% MTD, 100 mg/kg/day orally once daily for 5 days from day 8
[6] = 50% MTD, 200 mg/kg/day orally once daily for 5 days from day 8
[7] = mice, 30 mg/kg iv, experiment P06.0068
[8] = mice, 30 mg/kg po, experiment P06.0068
[9] = mice, 30 mg/kg po, experiment P06.0069
[10] = mice, 30 mg/kg iv, experiment P06.0069

## CCCCCCCCCCCCOCC(COP(=O)(O)OC[C@H]1O[C@@H](n2cnc3c(N)nc(Cl)nc32)C(F)[C@H]1O)OCCCCCCCCCC (stereo partly drawn) [Compound 1, [2-Chloro-9-(2′-deoxy-2′-fluoro-β-D-arabinofuranosyl)adenine]-5′-phosphoric acid-(2-decyloxy-3-dodecyloxy)propyl ester]
[1]; 18 days after termination of treatment (day 30)
  Tumor size versus control animals: significantly (p<0.01) smaller tumors than control animals
[1]; [3]
  Tumor inhibition: 43%
[1]; [4]
  Tumor inhibition: 93%
[1]; [5]
  Tumor weight: 1.60 g
[1]; [6]
  Tumor weight: 0.19 g
[2]; mice, experiment P06.0069
  Bioavailability F (AUC(0-inf.)): 28.5%
[2]; mouse, plasma, po, 30 mg/kg
  AUC: 88.9 µg·h/mL

## CCCCCCCCCCCCSCC(COP(=O)(O)OC[C@H]1O[C@@H](n2cnc3c(N)nc(Cl)nc32)[C@@H](F)[C@@H]1O)OCCCCCCCCCC (stereo partly shown) [Compound 6]
[1]; [3]
  Tumor inhibition: 31%
[1]; [4]
  Tumor inhibition: 74%
[1]; [5]
  Tumor weight: 1.91 g
[1]; [6]
  Tumor weight: 0.73 g
[2]; [7]
  AUC(0-inf.) (calc.): 841.7 µg·h/mL
  AUC(0-t) (obs.): 823.424 µg·h/mL
  Cmax (obs.): 673387 ng/mL
  Tmax (obs.): 0.0 h
  Vd: 0.26 L/kg
  t½α: 0.4 h
  t½β: 5.1 h
[2]; mice, 30 mg/kg orally, AUC(0-t)
  AUC after oral application: 213 µg·h/mL
[2]; mice, experiment P06.0068
  Bioavailability F (AUC(0-inf.)): 28.5%
[2]; [8]
  AUC(0-inf.) (calc.): 239.878 µg·h/mL
  AUC(0-t) (obs.): 236.496 µg·h/mL
  Cmax (obs.): 19517 ng/mL
  Tmax (obs.): 4.0 h
  Vd: 1.30 L/kg
  t½α: 0.5 h
  t½β: 7.2 h
[2]; [9]
  AUC(0-inf.) (calc.): 225.914 µg·h/mL
  AUC(0-t) (obs.): 212.685 µg·h/mL
  Cmax (obs.): 23571 ng/mL
  Tmax (obs.): 3.0 h
  Vd: 1.10 L/kg
  t½α: 0.9 h
  t½β: 5.7 h

## [2-Chloro-9-(2′-deoxy-2′-fluoro-β-D-arabinofuranosyl)adenine]-5′-phosphoric acid-(2-decyloxy-3-dodecyloxy)propyl ester [Compound 1]
[2]; [10]
  AUC(0-inf.) (calc.): 320.025 µg·h/mL
  AUC(0-t) (obs.): 315.695 µg·h/mL
  Cmax (obs.): 486156 ng/mL
  Tmax (obs.): 0.02 h
[2]; mice, experiment P06.0069
  Bioavailability F (AUC(0-inf.)): 28.5%
[2]; [9]
  AUC(0-inf.) (calc.): 91.31 µg·h/mL
  AUC(0-t) (obs.): 88.927 µg·h/mL
  Cmax (obs.): 13256 ng/mL
  Tmax (obs.): 2.0 h
